What was measured:
SETVI [1] = test: Herbicidal post-emergence action 1a (greenhouse pots, visual rating); type: in vivo, Setaria viridis; conditions: rated visually about 3 weeks after treatment, 100% = plants have died, 0% = like control plants
In short: (§1)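 Visual scoring versus untreated plants (100% = plants dead, 0% = as control) followed roughly 3 weeks in the greenhouse after treatment. Plants grown in sandy loam pots had been sprayed on green parts at the one-leaf stage, 2–3 weeks post-sowing, with aqueous WP/EC preparations containing 0.5% additive, 600 l/ha, at 320 and/or 80 g/ha.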

SETVI [2] = test: Herbicidal pre-emergence action 2a (greenhouse pots, visual scoring); type: in vivo, Setaria viridis; conditions: dosage 320 g/ha, visual scoring after about 3 weeks vs untreated controls
In short: (§2)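 Visual scoring after roughly 3 weeks, as percent effect relative to untreated pots (0% = like control, 100% = dead). Seeds were covered with soil, then the surface received aqueous WP/EC suspension or emulsion (0.5% additive, 600 l/ha) at 320 and/or 80 g/ha.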

AVEFA [3] = test: as above; type: in vivo, Avena fatua; conditions: dosage 320 g/ha, visual scoring after about 3 weeks
In short: as §2

LOLRI [4] = test: Herbicidal post-emergence action 1a (greenhouse pots, visual rating); type: in vivo, Lolium rigidum; conditions: Dosage 320 g/ha; rated visually about 3 weeks after treatment; 100% = plants have died, 0% = like control plants
In short: as §1

ECHCG [5] = test: Herbicidal pre-emergence action 2a (greenhouse pots, visual scoring); type: in vivo, Echinochloa crus-galli; conditions: dosage 320 g/ha, visual scoring after about 3 weeks
In short: as §2

ABUTH [6] = test: Herbicidal post-emergence action 1a (greenhouse pots, visual rating); type: in vivo, Abutilon theophrasti; conditions: visual rating about 3 weeks after treatment
In short: as §1

AMARE [7] = test: as above; type: in vivo, Amaranthus retroflexus; conditions: visual rating about 3 weeks after treatment
In short: as §1

MATIN = test: Herbicidal pre-emergence action 2a (greenhouse pots, visual scoring); type: in vivo, Matricaria inodora; conditions: dosage 320 g/ha, visual scoring after about 3 weeks vs untreated controls
In short: as §2

PHBPU [8] = test: Herbicidal post-emergence action 1a (greenhouse pots, visual rating); type: in vivo, Pharbitis purpurea; conditions: visual rating about 3 weeks after treatment
In short: as §1

POLCO [9] = test: Herbicidal pre-emergence action 2a (greenhouse pots, visual scoring); type: in vivo, Polygonum convolvulus; conditions: dosage 320 g/ha, visual scoring after about 3 weeks vs untreated controls
In short: as §2

ECHCG [10] = test: Herbicidal post-emergence action 1a (greenhouse pots, visual rating); type: in vivo, Echinochloa crus-galli; conditions: rated visually about 3 weeks after treatment, 100% = plants have died, 0% = like control plants
In short: as §1

LOLRI [11] = test: Herbicidal pre-emergence action 2a (greenhouse pots, visual scoring); type: in vivo, Lolium rigidum; conditions: dosage 320 g/ha, visual scoring after about 3 weeks vs untreated controls
In short: as §2

ALOMY [12] = test: as above; type: in vivo, Alopecurus myosuroides; conditions: dosage 320 g/ha, visual scoring after about 3 weeks
In short: as §2

PHBPU [13] = test: as above; type: in vivo, Pharbitis purpurea; conditions: dosage 320 g/ha, visual scoring after about 3 weeks vs untreated controls
Description: (§3) [table] a) Seeds of monocotyledonous and dicotyledonous weed plants and crop plants are placed in plastic or organic plant pots and covered with soil. The compounds of the invention, formulated in the form of wettable powders (WP) or as emulsion concentrates (EC), are then applied onto the surface of the covering soil as aqueous suspension or emulsion with addition of 0.5% additive at a water application rate of 600 1/ha (converted). After the treatment, the pots are placed in a greenhouse and kept under good growth conditions for the trial plants. After about 3 weeks, the effect of the preparations is scored visually in comparison with untreated controls as percentages. For example, 100% activity=the plants have died, 0% activity=like control plants. Tables B1 to B15 below show the effects of selected compounds of the general formula (I) according to Tables 1 and 2 on various harmful plants and an application rate corresponding to 320 g/ha and/or 80 g/ha, which were obtained by the experimental procedure mentioned above.

VERPE [14] = test: Herbicidal post-emergence action 1a (greenhouse pots, visual rating); type: in vivo, Veronica persica; conditions: visual rating about 3 weeks after treatment
In short: as §1

ALOMY [15] = test: as above; type: in vivo, Alopecurus myosuroides; conditions: Dosage 320 g/ha; rated visually about 3 weeks after treatment; 100% = plants have died, 0% = like control plants
In short: as §1

AMARE [16] = test: Herbicidal pre-emergence action 2a (greenhouse pots, visual scoring); type: in vivo, Amaranthus retroflexus; conditions: dosage 320 g/ha, visual scoring after about 3 weeks vs untreated controls
In short: as §2

ABUTH [17] = test: as above; type: in vivo, Abutilon theophrasti; conditions: dosage 320 g/ha, visual scoring after about 3 weeks vs untreated controls
Description: as §3

AVEFA [18] = test: Herbicidal post-emergence action 1a (greenhouse pots, visual rating); type: in vivo, Avena fatua; conditions: rated visually about 3 weeks after treatment, 100% = plants have died, 0% = like control plants
In short: as §1

VERPE [19] = test: Herbicidal pre-emergence action 2a (greenhouse pots, visual scoring); type: in vivo, Veronica persica; conditions: dosage 320 g/ha, visual scoring after about 3 weeks vs untreated controls
In short: as §2

POLCO [20] = test: Herbicidal post-emergence action 1a (greenhouse pots, visual rating); type: in vivo, Polygonum convolvulus; conditions: visual rating about 3 weeks after treatment
In short: as §1

O=C(O)COc1nn(-c2cnccn2)c(-c2cncc(F)c2)c1Cl [Example I-92]
Post-emergence action against SETVI in % (SETVI [1]; Dosage 80 g/ha): 80%
Post-emergence action against SETVI in % (SETVI [1]; Dosage 320 g/ha): 80%
Pre-emergence action against SETVI in % (SETVI [2]): 100%
Pre-emergence action against AVEFA in % (AVEFA [3]): 100%
Post-emergence action against LOLRI in % (LOLRI [4]): 90%
Pre-emergence action against ECHCG in % (ECHCG [5]): 90%
Post-emergence action against ABUTH in % (ABUTH [6]; dosage 320 g/ha): 90%
Post-emergence action against AMARE in % (AMARE [7]; dosage 80 g/ha): 80%
Post-emergence action against AMARE in % (AMARE [7]; dosage 320 g/ha): 90%
Pre-emergence action against MATIN in % (MATIN): 100%
Post-emergence action against PHBPU in % (PHBPU [8]; dosage 80 g/ha): 80%
Post-emergence action against PHBPU in % (PHBPU [8]; dosage 320 g/ha): 90%
Pre-emergence action against POLCO in % (POLCO [9]): 90%
Post-emergence action against ECHCG in % (ECHCG [10]; Dosage 80 g/ha): 90%
Post-emergence action against ECHCG in % (ECHCG [10]; Dosage 320 g/ha): 90%
Pre-emergence action against LOLRI in % (LOLRI [11]): 100%
Pre-emergence action against ALOMY in % (ALOMY [12]): 90%
Pre-emergence action against PHBPU in % (PHBPU [13]): 90%
Post-emergence action against VERPE in % (VERPE [14]; dosage 80 g/ha): 80%
Post-emergence action against VERPE in % (VERPE [14]; dosage 320 g/ha): 90%
Post-emergence action against ALOMY in % (ALOMY [15]): 80%
Pre-emergence action against AMARE in % (AMARE [16]): 100%
Pre-emergence action against ABUTH in % (ABUTH [17]): 90%
Post-emergence action against AVEFA in % (AVEFA [18]; Dosage 80 g/ha): 90%
Post-emergence action against AVEFA in % (AVEFA [18]; Dosage 320 g/ha): 90%
Pre-emergence action against VERPE in % (VERPE [19]): 100%

CCOC(=O)COc1nn(-c2cnccn2)c(-c2cncc(F)c2)c1Cl [Example I-91]
Post-emergence action against SETVI in % (SETVI [1]; Dosage 80 g/ha): 80%
Post-emergence action against SETVI in % (SETVI [1]; Dosage 320 g/ha): 90%
Pre-emergence action against SETVI in % (SETVI [2]): 100%
Pre-emergence action against AVEFA in % (AVEFA [3]): 90%
Post-emergence action against LOLRI in % (LOLRI [4]): 90%
Pre-emergence action against ECHCG in % (ECHCG [5]): 100%
Post-emergence action against POLCO in % (POLCO [20]; dosage 80 g/ha): 80%
Post-emergence action against POLCO in % (POLCO [20]; dosage 320 g/ha): 80%
Post-emergence action against ABUTH in % (ABUTH [6]; dosage 80 g/ha): 80%
Post-emergence action against ABUTH in % (ABUTH [6]; dosage 320 g/ha): 80%
Post-emergence action against AMARE in % (AMARE [7]; dosage 80 g/ha): 80%
Post-emergence action against AMARE in % (AMARE [7]; dosage 320 g/ha): 90%
Pre-emergence action against MATIN in % (MATIN): 100%
Post-emergence action against PHBPU in % (PHBPU [8]; dosage 320 g/ha): 90%
Pre-emergence action against POLCO in % (POLCO [9]): 90%
Post-emergence action against ECHCG in % (ECHCG [10]; Dosage 320 g/ha): 90%
Pre-emergence action against LOLRI in % (LOLRI [11]): 100%
Pre-emergence action against ALOMY in % (ALOMY [12]): 80%
Pre-emergence action against PHBPU in % (PHBPU [13]): 90%
Post-emergence action against VERPE in % (VERPE [14]; dosage 80 g/ha): 80%
Post-emergence action against VERPE in % (VERPE [14]; dosage 320 g/ha): 80%
Pre-emergence action against AMARE in % (AMARE [16]): 100%
Pre-emergence action against ABUTH in % (ABUTH [17]): 90%
Post-emergence action against AVEFA in % (AVEFA [18]; Dosage 320 g/ha): 90%
Pre-emergence action against VERPE in % (VERPE [19]): 90%
